According to US12329760B2, “Methods and compositions for targeting retinoic acid for solid tumor immunotherapy” (THE TRUSTEES OF THE UNIVERSITY OF PENNSYLVANIA, priority 2019, dated 2025):

Tested on: MCAS cells
Experiment: RALDH3 expression in treated MCAS cells by RT-QPCR
Format: cell-based, murine
Details: for RALDH3 expression (relative to 18S): MCAS cells treated in vitro with cytokine, vs no Tx
Experimental: FIGS. 16A-16C show 1L13 and RALDH expression. FIG. 16A: MCAS cells were treated in vitro with indicated agents and RALDH3 expression (relative to 18S) measured by RT-QPCR. P<0.05 between no Tx and IL4 or IL13. N=3, repeated >5 times. FIG. 16B: IL13 and IL13Rα1 staining in murine UPS. FIG. 16C: Single cell suspension from MCAS tumors were fractionated into CD45+(Leukocytes) and CD45-fraction using miltenyi magnetic columns. RT-QPCR based measurement (relative to 18S) of IL13 and IL13Rα1 transcripts were performed on fractionated cells. P<0.01 for IL13. N=3, experiment repeated twice.
FIG. 20A: MCAS cells were treated with indicated compounds and RALDH3 expression (relative to 18S) measured by RT-QPCR. P<0.01 for DMSO vs. IL13. P<0.05 for IL13 vs. IL13+BMS493. FIG. 20B: Schematic of RALDH3 regulation by RA.
Aldefluor positive and negative cells were purified from murine fibrosarcomas and were transplanted into syngeneic B6 mice. Tumors derived from both types of cells generated both aldefluor positive and negative cells. This indicated the existence of an environmental signal in the TME that induces RA production in tumor cells. Th2 cytokines such as IL4 and IL13 can promote the differentiation of monocytes into either immunostimulatory DCs or immunosuppressive TAMS. Therefore, it was reasoned that tumors might induce RA production in the presence of IL4 or IL13 to block DC and promote TAM differentiation. To test this, MCAS cell lines were treated with cytokines promoting macrophage and DC differentiation and measured the expression of RALDH enzymes. […] IL13 and its receptor IL13Rα1 were also detected in murine sarcomas by IHC (FIG. 16B).

Molecule	potency of RALDH3 induction, IL13 compared with IL4 (MCAS cells in vitro)	RALDH3 expression (relative to 18S)
IL13: Th2 cytokine	more potent	induced the expression of RALDH3
IL4: Th2 cytokine (protein, UniProt P05112 25-153, looked up) Interleukin-4: HKCDITLQEIIKTLNSLTEQKTLCTELTVTDIFAASKNTTEKETFCRAATVLRQFYSHHEKDTRCLGATAQQFHRHKQLIRFLKRLDRNLWGLAGLNSCPVKEANQSTLENFLERLKTIMREKYSKCSS		induced the expression of RALDH3
